Reference: US20250026773A1, “MONO-P-TOLUENESULFONATE OF AXL KINASE INHIBITOR AND CRYSTAL FORM THEREOF” (NANJING CHIA TAI TIANQING PHARMACEUTICAL CO., LTD., priority 2021, published 2025)

What was measured:
[1] = Pharmacokinetic study in ICR mice; assay type: in vivo; details: male, mouse, po, 10 mg·kg^-1 by gavage, plasma
Protocol: Each compound was prepared into a 10 mg/mL stock solution with DMSO.
Mixed solvent preparation: Tween 80:PEG 400:Water=1:9:90 (v/v/v).
Accurately aspirated 450 μL of DMSO stock solution of the compounds at a concentration of 10 mg/mL to a glass vial, respectively, added an appropriate volume of DMSO and mixed solvent, the ratio of solvent in the final preparation is DMSO:mixed solvent (v/v)=10:90, vortexed (or sonicated), dispersed homogeneously, to obtain the concentration of 1 mg/mL of 4.5 mL of the administered test solution respectively.
Male 6-10 weeks old ICR mice (mouse source: Viton Lever Laboratory Animal Technology Co., Ltd.) were taken, 6 mice in each group, and the mice were fasted overnight and fed 4 hours after drug administration. On the day of the experiment, mice were given 10 mg·kg^−1 of compound test solution by gavage respectively. After the administration of the drug, mice were blood sampled at 0, 5 min, 15 min, 30 min, 1 h, 2 h, 4 h, 8 h, and 24 h from the orbital region of about […], which was placed in EDTA-K2 anticoagulant tubes. […] Plasma concentration was determined by LC-MS/MS method.
Pharmacokinetic parameters were calculated using the non-compartment model in Pharsight Phoenix 7.0, and the results are detailed in the following table.

[2] = Physicochemical stability study of crystal forms (XRPD and HPLC)
Text: Use XRPD and HPLC to detect the physical and chemical stability of the samples.

[3] = Solubility in water and various pH media; assay type: physicochemical; details: thermodynamic from solid
[4] = After placement, 40° C./75% RH, 5 days
[5] = After placement, 40° C./75% RH, 10 days
[6] = After placement, 40° C./75% RH, 30 days
[7] = After placement, 60° C., 5 days
[8] = After placement, 60° C., 10 days
[9] = After placement, 60° C., 30 days
[10] = After placement, 75% RH, 5 days
[11] = After placement, 75% RH, 10 days
[12] = After placement, 75% RH, 30 days
[13] = After placement, 92.5% RH, 5 days
[14] = After placement, 92.5% RH, 10 days
[15] = After placement, Light, 10 days

COCc1ccc(Nc2nc(Nc3ccc4c(c3)CC[C@@H](N3CCCC3)CC4)ncc2Cl)c(P(C)(C)=O)c1 [Example 1, (S)-(2-((5-chloro-2-((7-(pyrrolidin-1-yl)-6,7,8,9-tetrahydro-5H-benzo[7]annulen-2-yl)amino)pyrimidin-4-yl)amino)-5-(methoxymethyl)phenyl)dimethylphosphine oxide] gave a half-life [1] of 1.35 h.

CN1CCN(Cc2ccc(Nc3ncc(Cl)c(Nc4ccccc4S(=O)(=O)N(C)C)n3)cc2)CC1 [Positive drug 2 (TP0903), reference compound] gave a half-life [1] of 1.2 h.

For COCc1ccc(Nc2nc(Nc3ccc4c(c3)CC[C@@H](N3CCCC3)CC4)ncc2Cl)c(P(C)(C)=O)c1.Cc1ccc(S(=O)(=O)O)cc1 [crystal form B, mono-p-toluenesulfonate monohydrate of (S)-(2-((5-chloro-2-((7-(pyrrolidin-1-yl)-6,7,8,9-tetrahydro-5H-benzo[7]annulen-2-yl)amino)pyrimidin-4-yl)amino)-5-(methoxymethyl)phenyl)dimethylphosphine oxide], the Crystal form [2, 4] was “Crystal form B”, the Maximum single impurity [2, 4] was “Maximum single impurity: 0.04 A %” and the Purity [2, 4] was “Purity: 99.81 A %”. For the same molecule, the Crystal form [2, 5] was “Crystal form B”, the Maximum single impurity [2, 5] was “Maximum single impurity: 0.04 A %” and the Purity [2, 5] was “Purity: 99.82 A %”. The Crystal form [2, 6] was “Crystal form B”, the Maximum single impurity [2, 6] was “Maximum single impurity: 0.04 A %” and the Purity [2, 6] was “Purity: 99.81 A %”. The Crystal form [2, 7] was “Crystal form B”, the Maximum single impurity [2, 7] was “Maximum single impurity: 0.04 A %” and the Purity [2, 7] was “Purity: 99.81 A %”. For the same molecule, the Crystal form [2, 8] was “Crystal form B”, the Maximum single impurity [2, 8] was “Maximum single impurity: 0.04 A %” and the Purity [2, 8] was “Purity: 99.82 A %”. The Crystal form [2, 9] was “Crystal form B”, the Maximum single impurity [2, 9] was “Maximum single impurity: 0.04 A %” and the Purity [2, 9] was “Purity: 99.80 A %”. The Crystal form [2, 10] was “Crystal form B”, the Maximum single impurity [2, 10] was “Maximum single impurity: 0.04 A %” and the Purity [2, 10] was “Purity: 99.81 A %”. For the same molecule, the Crystal form [2, 11] was “Crystal form B”, the Maximum single impurity [2, 11] was “Maximum single impurity: 0.04 A %” and the Purity [2, 11] was “Purity: 99.82 A %”. The Crystal form [2, 12] was “Crystal form B”, the Maximum single impurity [2, 12] was “Maximum single impurity: 0.04 A %” and the Purity [2, 12] was “Purity: 99.80 A %”. For the same molecule, the Crystal form [2, 13] was “Crystal form B”, the Maximum single impurity [2, 13] was “Maximum single impurity: 0.04 A %” and the Purity [2, 13] was “Purity: 99.81 A %”. For the same molecule, the Crystal form [2, 14] was “Crystal form B”, the Maximum single impurity [2, 14] was “Maximum single impurity: 0.04 A %” and the Purity [2, 14] was “Purity: 99.82 A %”. For the same molecule, the Crystal form ([2]; After placement, Light, 5 days) was “Crystal form B”, the Maximum single impurity ([2]; After placement, Light, 5 days) was “Maximum single impurity: 0.05 A %” and the Purity ([2]; After placement, Light, 5 days) was “Purity: 99.67 A %”. For the same molecule, the Crystal form [2, 15] was “Crystal form B”, the Maximum single impurity [2, 15] was “Maximum single impurity: 0.10 A %” and the Purity [2, 15] was “Purity: 99.60 A %”. For the same molecule, the Crystal form ([2]; Before placement) was “Crystal form B”, the Maximum single impurity ([2]; Before placement) was “impurity: 0.04 A %” and the Purity ([2]; Before placement) was “Purity: 99.81 A %”. It also gave a solubility ([3]; potassium dihydrogen phosphate/sodium hydroxide buffer, aqueous buffer, pH 6.0, potassium dihydrogen phosphate/sodium hydroxide) of 1900 µg/mL, a solubility ([3]; potassium dihydrogen phosphate/sodium hydroxide buffer, aqueous buffer, pH 6.8, potassium dihydrogen phosphate/sodium hydroxide) of 2100 µg/mL and a solubility ([3]; potassium dihydrogen phosphate/sodium hydroxide buffer, aqueous buffer, pH 7.4, potassium dihydrogen phosphate/sodium hydroxide) of 2100 µg/mL. The solubility ([3]; simulated gastric fluid, pH 1.0, dilute hydrochloric acid with water) was 87200 µg/mL, the solubility ([3]; simulated gastric fluid, pH 2.0, dilute hydrochloric acid with water) was 4700 µg/mL and the solubility ([3]; sodium acetate trihydrate/glacial acetic acid buffer, aqueous buffer, pH 4.5, sodium acetate trihydrate/glacial acetic acid) was 2000 µg/mL. It also gave a solubility ([3]; water) of 1400 µg/mL.

With COCc1ccc(Nc2nc(Nc3ccc4c(c3)CC[C@@H](N3CCCC3)CC4)ncc2Cl)c(P(C)(C)=O)c1 [free base crystal form A, (S)-(2-((5-chloro-2-((7-(pyrrolidin-1-yl)-6,7,8,9-tetrahydro-5H-benzo[7]annulen-2-yl)amino)pyrimidin-4-yl)amino)-5-(methoxymethyl)phenyl)dimethylphosphine oxide] the Crystal form [2, 7] was “Crystal form A”, the Maximum single impurity [2, 7] was “impurity: 0.75 A %” and the Purity [2, 7] was “Purity: 96.39 A %”. For the same molecule, the Crystal form [2, 8] was “Crystal form A”, the Maximum single impurity [2, 8] was “impurity: 1.21 A %” and the Purity [2, 8] was “Purity: 94.49 A %”. For the same molecule, the Maximum single impurity [2, 9] was “impurity: 2.02 A %”, the Purity [2, 9] was “Purity: 89.65 A %” and the Crystal form ([2]; Before placement) was “Crystal form A”. The Maximum single impurity ([2]; Before placement) was “impurity: 0.05 A %” and the Purity ([2]; Before placement) was “Purity: 99.33 A %”.
